Experimental data as given in PubChem BioAssay (NCI).
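Interpolation was linear, between the two tested concentrations surrounding the appropriate level; five concentrations were tested over 48 hours in 96-well plates. TGI: concentration producing complete growth inhibition.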

Columns and labels:
Assay in all cases: inhibition of tumour cell growth, NCI panel, 48 h
[1] = tested on: SF-295 CNS
[2] = tested on: SNB-75 CNS
[3] = tested on: OVCAR-4 ovarian
[4] = tested on: U251 CNS
[5] = tested on: KM12 colon
[6] = tested on: HT29 colon
[7] = tested on: EKVX NSCLC
[8] = tested on: UO-31 renal
[9] = tested on: HCT-116 colon
[10] = tested on: A549 NSCLC
[11] = tested on: HL-60(TB) leukemia
[12] = tested on: CCRF-CEM leukemia
[13] = tested on: SK-MEL-28 melanoma
[14] = tested on: NCI-H226 lung
[15] = tested on: RXF 393 renal
[16] = tested on: SK-OV-3 ovarian
[17] = tested on: SK-MEL-2 melanoma
[18] = tested on: K-562 leukemia
[19] = tested on: SK-MEL-5 melanoma
[20] = tested on: LOX IMVI melanoma

Compound | TGI [1] [µM] | TGI [2] [µM] | TGI [3] [µM] | TGI [4] [µM] | TGI [5] [µM] | TGI [6] [µM] | TGI [7] [µM] | TGI [8] [µM] | TGI [9] [µM] | TGI [10] [µM] | TGI [11] [µM] | TGI [12] [µM] | TGI [13] [µM] | TGI [14] [µM] | TGI [15] [µM] | TGI [16] [µM] | TGI [17] [µM] | TGI [18] [µM] | TGI [19] [µM] | TGI [20] [µM]
Cc1ccc(C2COc3cc(O)c(O)cc3C2)cc1 (centres undefined) | 134 | 126 | 62 | 94.3 | 127 | 149 | 59.8 | 101 | 23.7 | 192 | 8.27 | 12.3 | 32.8 | 235 | 26.2 | 275 | 57.3 | 42.8 | 105 | –
CO/N=C\c1cc(O)c(O)c(/C=N/OC)c1 | > 100 | > 100 | > 100 | > 100 | > 100 | > 100 | > 100 | > 100 | > 100 | > 100 | 99.3 | > 100 | > 100 | 88.9 | > 100 | > 100 | > 100 | > 100 | > 100 | > 100
O=C(c1ccccc1)c1nc2ccc(Cl)cc2c2c1CCCO2 | > 100 | – | > 100 | > 100 | > 100 | > 100 | > 100 | > 100 | > 100 | – | – | – | > 100 | > 100 | > 100 | – | > 100 | > 100 | – | > 100
Cc1nc2[nH]ncn2c(=O)c1CCCl | – | > 10 | > 10 | > 10 | – | > 10 | > 10 | > 10 | > 10 | > 10 | > 10 | > 10 | > 10 | > 10 | > 10 | > 10 | > 10 | > 10 | > 10 | > 10
OCc1cc2ccncc2c2c1[nH]c1ccccc12 | 25.1 | 19.5 | 26.8 | 18.9 | > 100 | 22.8 | > 100 | 28 | 15.7 | 24.8 | 24.9 | > 100 | > 100 | 6.71 | 9.77 | – | 67.5 | > 100 | 25.1 | 16.3
COc1cc(C(=O)CC2OC(=O)C(Cl)=C2Cl)ccc1Cl (centres undefined) | > 100 | > 100 | > 100 | > 100 | > 100 | > 100 | > 100 | > 100 | > 100 | > 100 | > 100 | > 100 | > 100 | > 100 | > 100 | > 100 | > 100 | > 100 | > 100 | > 100
O=C(c1ccccc1)C1C(c2ccccc2)N1S(=O)(=O)c1ccccc1 (centres undefined) | > 100 | > 100 | > 100 | > 100 | > 100 | > 100 | > 100 | > 100 | > 100 | > 100 | – | > 100 | > 100 | > 100 | > 100 | > 100 | > 100 | > 100 | > 100 | > 100
C[C@]12CC[C@@H]3c4ccc(O)cc4CC[C@H]3[C@@H]1CC[C@@H]2OC(=O)CCc1ccccc1 | 42 | 33.8 | 39.1 | 38.1 | 78.7 | 40.7 | 25.4 | 33.8 | 48.4 | 52.9 | 43.9 | 67.5 | 39.2 | 36.8 | 33.6 | 38.1 | 30.8 | 33.9 | 33.7 | 39.4
